# Assay results reported in PMC5789975, “Computer-aided Discovery of Peptides that Specifically Attack Bacterial Biofilms” (Scientific Reports, 2018).
# Experiments:
# [1] = system: planktonic S. aureus MRSA (SAP0017); assay: MIC determination, broth microdilution; type: cell-based, Staphylococcus aureus; settings: broth microdilution, ~5 × 10^5 CFU/ml, 37 °C overnight, visual read, mean of three biological replicates; for MIC, MHB: Mueller Hinton Broth; for MIC, TSB with 1% Glucose: Tryptic Soy Broth with 1% glucose
# Description: The MIC of the synthesized peptides was determined in both Mueller Hinton Broth (MHB) and Tryptic Soy Broth (TSB) supplemented with 1% glucose, using the broth microdilution method[21] with slight modifications. Briefly, 10 μl of a 10× concentrated peptide stock solution, vancomycin antibiotic, or vehicle control (water) was placed in the bottom of a well in a 96-well polypropylene round bottom plate (Corning Inc. Corning, NY). A bacterial suspension of S. aureus MRSA (SAP0017, clinical isolate kindly provided by Dr. Tony Chow, Vancouver General Hospital) was prepared from an overnight culture to a final cell density of ~5 × 10^5 CFU/ml and 90 μl of this was added to each well.
# [2] = system: S. aureus (MRSA SAP0017) biofilms; assay: Static microtitre plate antibiofilm screen (crystal violet); type: cell-based, Staphylococcus aureus; settings: for antibiofilm activity of SPOT-synthesized Experimental Validation Set peptides: highest peptide concentration evaluated, compared to untreated controls, listed from most to least active
# Description: The SPOT-synthesized peptides were evaluated for their antibiofilm activity in vitro as described previously. Briefly, 5 μl of SPOT-peptide stock solution or a corresponding serial dilution was placed in a 96-well polypropylene round bottom plate (Corning Inc. Corning, NY) and 95 μl of a 1/100 dilution of an overnight culture of MRSA SAP0017 in TSB supplemented with 1% glucose was added to each well. The plates were incubated overnight at 37 °C to allow for bacterial growth and biofilm maturation. After 24 hours, the media containing planktonic bacteria was rinsed from each well with distilled water and the remaining biomass was stained with 0.1% crystal violet. The unbound dye was rinsed away and the biofilm bound dye was suspended in 70% ethanol and the absorbance at 595 nm was recorded on a plate reader. Percent biofilm inhibition was calculated by comparison to the amount of crystal violet stain in the untreated controls (defined as 100%) and the sterility control wells (defined as 0%). Results from three separate biological replicates were averaged and outliers were identified using the modified Thompson Tau test and removed from the analysis. The antibiofilm activity of all SPOT-derived peptides was assessed at multiple concentrations (up to five 2-fold dilutions from the stock solution) and the peptide concentration yielding the largest difference in percent inhibition of biofilm growth was used in subsequent analysis.
# [3] = system: MRSA USA300 LAC; assay: Murine cutaneous abscess model; type: in vivo, CD-1 mice; settings: 14 mg/kg; for reduction of abscess lesion size compared to untreated controls: single intra-abscess injection 1 h after infection, 3 days; for effect on bacterial load recovered from the abscesses: single intra-abscess injection, CFU three days post-infection
# Description: The in vivo activity of the identified antibiofilm peptide 3002 and the parental compound 1018 was evaluated using a recently described murine abscess model of chronic MRSA infections. All animal experiments were performed in accordance with The Canadian Council on Animal Care (CCAC) guidelines and were approved by the University of British Columbia Animal Care Committee. Briefly, the fur on the backs of 6-week old female CD-1 mice (Charles River Laboratories, Wilmington, MA) was removed by shaving and subsequent treatment with depilatory cream. MRSA USA300 LAC was grown to an optical density at 600 nm of 1 in tryptic soy broth (TSB) at which point cells were washed twice with sterile PBS and then suspended in PBS to a final cell density of 5 × 10^7 CFU/50 μL. Mice were infected with 50 μL of bacteria subcutaneously on the right flank of the back and 1 hour later, given saline (for controls) or treated with 14 mg/kg peptide (1018 or 3002) via intra-abscess injection. Mice were monitored daily and their weight as well as abscess lesion sizes (measured using a caliper) were recorded every 24 hrs. Visible dermonecrosis or white lesions (filled with pus) were considered as part of the abscess lesion while swelling/inflammation was disregarded in the abscess size measurements. Three days post-infection, abscesses were excised and homogenized using a Bead Ruptor 4 tissue homogenizer (OMNI International, Kennesaw GA) for 5 minutes and serially plated for viable CFU quantification.
# [4] = system: IL-1β production from LPS-stimulated PBMCs; assay: Suppression of IL-1β from LPS-stimulated PBMCs (ELISA); type: cell-based, human; settings: PBMCs stimulated with 10 ng/ml P. aeruginosa PAO1 LPS; 10, 20, 40 µM peptide; six donors
# Description: (§1) The cytotoxicity and immunomodulatory activity of both 1018 and 3002 was assessed as described previously. Briefly, peripheral blood mononuclear cells (PBMCs) were collected from healthy volunteers in accordance with the University of British Columbia ethics guidelines. PBMCs were plated in Costar 96-well flat bottom tissue culture treated plates at a final density of 1 × 10^6 cells/ml in RPMI media supplemented with 10% fetal bovine serum. Both peptides were tested at final concentrations of 40, 20 and 10 µM. Cytotoxicity was assessed using the Cytotoxicity Detection Kit (Roche Diagnostics, Basel, Switzerland) which measures lactate dehydrogenase activity released from damaged cells. Immune modulation was characterized by measuring the production of MCP-1 chemokine by induced by peptide alone as well as the suppression of interleukin (IL)-1β from PBMCs stimulated with 10 ng/ml Pseudomonas aeruginosa PAO1 lipopolysaccharide. Levels of MCP-1 and IL-1β were quantified by enzyme linked immunosorbent assays (ELISAs) using kits from eBioscience Inc. (San Diego, CA).
# [5] = system: S. aureus (MRSA SAP0017) biofilms; assay: Static microtitre plate antibiofilm screen (crystal violet); type: cell-based, Staphylococcus aureus
# [6] = system: MCP-1 production from PBMCs; assay: MCP-1 chemokine induction by peptide alone (ELISA); type: cell-based, human; settings: highest peptide concentration evaluated (40 µM), compared to 1018; six donors
# Description: as §1
# [7] = system: MRSA SAP0017 biofilms grown in flow cells; assay: Eradication of pre-formed biofilms in flow cells; type: cell-based, Staphylococcus aureus; settings: BM2 media, SYTO-9/propidium iodide, confocal microscopy
# Description: Bacterial biofilms were grown in BM2 media (62 mM potassium phosphate buffer, pH 7, 7 mM (NH4)2SO4, 2 mM MgSO4, 10 μM FeSO4 and 0.4% (wt/vol) glucose) for 48 hours followed by treatment with peptide (2 or 0.125 µM) for an additional 24 hours. The samples were stained with SYTO-9 and propidium iodide fluorescent dyes to image total and dead cells, respectively. Flow-cell images were acquired on an Olympus FluoView FV1000 confocal laser scanning microscope (Olympus Corp. Tokyo, Japan) and were analyzed with the Fiji software package.
# [8] = system: peripheral blood mononuclear cells (PBMCs); assay: Cytotoxicity, LDH release assay; type: cell-based, human; settings: peptide concentrations as high as 40 µM
# Description: as §1, with “Both peptides were tested at final concentrations of 40, 20 and 10 µM.” left out
# [9] = system: biofilms formed by P. aeruginosa, Escherichia coli and MRSA; settings: combination with various antimicrobial agents; cited from earlier work
# Source text: For example, when peptide 1018 was used in combination with various antimicrobial agents, it decreased the amount of drug required to treat biofilms formed by P. aeruginosa, Escherichia coli and MRSA (among others) by up to 64-fold[30]. […] It is likely that such synergistic effects would be conserved with the latest pept ...
substance,measurement,setting,value
"ILVRWIRWRIQW-NH2 [compound 3002, QSAR–predicted antibiofilm peptide, >95% purity, C-terminally amidated]","MIC, MHB",[1],2 µM
same,"MIC, TSB with 1% Glucose",[1],4 µM
same,antibiofilm activity of SPOT-synthesized Experimental Validation Set peptides,[2],exhibited antibiofilm activity
same,reduction of abscess lesion size compared to untreated controls,[3],2.8 fold
same,effect on bacterial load recovered from the abscesses,[3],neither peptide had any effect
same,suppression of IL-1β production,[4],in a concentration dependent manner to similar levels as seen for peptide 1018
same,concentration effectively inhibiting MRSA biofilm growth (as low as),"[5]; >95% pure peptide, static microtitre plate assay",1 µM
same,enhancement in antibiofilm potency compared to 1018,"[5]; >95% pure peptides, static microtitre plate assay",8 fold
same,MCP-1 production induced by peptide alone,[6],induced significantly more MCP-1 production
same,eradication of 2-day old pre-formed MRSA biofilms,[7]; 0.125 μM peptide for 24 h,effectively eradicated
same,eradication of 2-day old pre-formed MRSA biofilms,[7]; 2 µM peptide for 24 h,effectively eradicated
"VRLIVAVRIWRR-NH2 [compound 1018, synthetic immunomodulatory cationic peptide, 12-residue derivative of bovine bactenecin; parent template, reference compound]","MIC, MHB",[1],4 µM
same,"MIC, TSB with 1% Glucose",[1],>64 µM
same,cytotoxicity (LDH release),[8],less than 15%
same,decrease in amount of drug required to treat biofilms in combination with peptide,[9],up to 64 fold
same,percent residual biofilm after treatment with peptide,"[2]; SPOT-synthesized peptides (60–70% purity), ~6.25 μM, TSB with 1% glucose, 24 h 37 °C, crystal violet A595, mean of three biological replicates, Fig. 1b matrix",31%
same,reduction of abscess lesion size compared to untreated controls,[3],2.4 fold
same,effect on bacterial load recovered from the abscesses,[3],neither peptide had any effect
same,eradication of 2-day old pre-formed MRSA biofilms,[7]; 0.125 μM peptide for 24 h,virtually identical to untreated controls
same,eradication of 2-day old pre-formed MRSA biofilms,[7]; 2 µM peptide for 24 h,effectively eradicated
"WKKVQWLKRLLL-NH2 [compound 3003, QSAR–predicted antibiofilm peptide, >95% purity, C-terminally amidated]","MIC, MHB",[1],4 µM
same,"MIC, TSB with 1% Glucose",[1],16 µM
same,antibiofilm activity of SPOT-synthesized Experimental Validation Set peptides,[2],exhibited antibiofilm activity
same,residual biofilm growth,"[5]; >95% pure peptide, 32 μM",~ 40%
